# Earlier results, collected in patent publication US11338162B2 (priority 2013, dated 2022).
# What was measured:
# [1] = test system: rat; conditions: in vivo
# [2] = test system: Leuciscus idus (Golden orfe); conditions: in vivo
# [3] = test system: Lepomis macrochirus; conditions: in vivo
# [4] = test system: Pseudomonas putida; conditions: 16 h
# [5] = test system: Daphnia magna (Water flea); conditions: in vivo
# [6] = test system: rabbit; conditions: in vivo, topical or ocular
# [7] = test system: Desmodesmus subspicatus (green algae); conditions: 24 h
smiles,measurement,setting,value
"CCCCOCCOCCO [DGME, diethylene glycol monobutyl ether]",LD50 Oral - rat,[1],"5,660 mg/kg"
same,Toxicity to fish LC50,[2],">1,000 mg/l"
same,Toxicity to fish LC50,[3],"1,300 mg/l"
same,Toxicity to bacteria LC50 - Pseudomonas putida,[4],"1,170 mg/l-16 h"
same,Toxicity to daphnia and other aquatic invertebrates LC50 - Daphnia magna (Water flea),[5],"1,950 mg/l"
same,LD50 Dermal - rabbit,[6],"2,700 mg/kg"
same,dermal LD50 in rabbits,[6],2700 mg/kg
same,Toxicity to algae IC50 - Desmodesmus subspicatus (green algae),[7],>100 mg/l-24 h
